Assay results: US11945800B1, “1-cyclopropyl-6-fluoro-4-oxo-7-(4-((5-oxo-2-phenyl-4-(quinolin-2-ylmethylene)-4,5-dihydro-1H-imidazol-1-yl)methyl)piperazin-1-yl)-1,4-dihydroquinoline-3-carboxylic acid as an anti-inflammatory and anticancer compound” (KING FAISAL UNIVERSITY, priority 2023, dated 2024)

Key:
Bovine Serum Albumin = Bovine Serum Albumin (Bos taurus, UniProt P02769); assay: Bovine Serum Albumin assay (BSA), inhibition of protein denaturation; format: biochemical; settings: pH 6.4, read-out: percentage inhibition of precipitation (protein denaturation)
Description: In vitro-inflammatory activities of the tested samples were determined using a modified method of the BSA assay reported by Williams et al. BSA solution (0.4%, w/v) was prepared in Tris Buffered Saline. The pH was adjusted to 6.4 with glacial acetic acid. Different dilutions of 20, 40, 60, 80, and 100 μg/mL of the stock solutions were added to test tubes containing 1 mL of 0.4%, w/v BSA buffer solution. Both negative (solvent) and positive (aspirin) controls were assayed in a similar manner. The solutions were then heated in a water bath at 72° C. for 10 minutes and cooled for 20 minutes under laboratory conditions. The turbidity of the solutions (level of protein precipitation) was measured at 660 nm in Spectrophotometer (V-770 UV-Visible/NIR Spectrophotometer).
The percentage inhibition of precipitation (protein denaturation) was determined relative to the negative control using the following equation: […]

[1] = tested on: human osteosarcoma cells (MG-63); assay: Cytotoxicity by SRB assay, osteosarcoma cells; format: cell-based; settings: MG-63, 72 h, mean±SD
Description: (§1) The human prostate cancer cells (PC3) and human osteosarcoma cells (MG-63) were obtained from Nawah Scientific Inc. (Mokatam, Cairo, Egypt) and cultured in DMEM (Dulbecco's modified eagle's medium), Gibco, USA, supplemented with fetal bovine serum (FBS) at a concentration of 10% and 100 U/mL of penicillin and streptomycin (PS). The Cells were incubated at 37° C. in a humidified environment that contained 5% CO2.
(§2) The anticancer activity of 1-cyclopropyl-6-fluoro-4-oxo-7-(4-((5-oxo-2-phenyl-4-(quinolin-2-ylmethylene)-4,5-dihydro-1H-imidazol-1-yl)methyl)piperazin-1-yl)-1,4-dihydroquinoline-3-carboxylic acid was assessed against highly aggressive androgen-independent metastatic human prostate cancer cells (PC3) and osteosarcoma (MG-63) cells.
(§3) Cells were seeded in 96-well plates as aliquots of 100 μL cell suspension and incubated in a complete media for 24 h. afterward, cells were treated with 1-cyclopropyl-6-fluoro-4-oxo-7-(4-((5-oxo-2-phenyl-4-(quinolin-2-ylmethylene)-4,5-dihydro-1H-imidazol-1-yl)methyl)piperazin-1-yl)-1,4-dihydroquinoline-3-carboxylic acid at diverse concentrations ranging from 0.01 μM to 100 μM for 72 h. Then, cells were fixed at 4° C. for one hour with 150 μL of 10% trichloroacetic acid (TCA). After washing the cells five times with distilled water, 70 μL of sulforhodamine (SRB) solution (0.4% w/v) was added and incubated for 10 min at room temperature in a dark place. Cells were washed with 1% acetic acid three times and allowed to air-dry. Then, 150 μL of Tris pH 10.5 (10 mM) was added, and the absorbance was measured at 540 nm using a BMG LABTECH®-FLUOstar Omega microplate reader (Ortenberg, Germany). Half maximal inhibitory concentrations (IC50) values were calculated for each experiment using GraphPad Prism 6 software. IC50 values were reported as mean±SD.
(§4) The inhibition was calculated using the following equation: Inhibition %=100−Average Viability

[2] = tested on: human prostate cancer cells (PC3); assay: Cytotoxicity by SRB assay, prostate cancer cells; format: cell-based; settings: for IC50: PC-3, 72 h, mean±SD
Description: as §1, §2, §3, §4

Bovine Serum Albumin, sequence (P02769 25-607): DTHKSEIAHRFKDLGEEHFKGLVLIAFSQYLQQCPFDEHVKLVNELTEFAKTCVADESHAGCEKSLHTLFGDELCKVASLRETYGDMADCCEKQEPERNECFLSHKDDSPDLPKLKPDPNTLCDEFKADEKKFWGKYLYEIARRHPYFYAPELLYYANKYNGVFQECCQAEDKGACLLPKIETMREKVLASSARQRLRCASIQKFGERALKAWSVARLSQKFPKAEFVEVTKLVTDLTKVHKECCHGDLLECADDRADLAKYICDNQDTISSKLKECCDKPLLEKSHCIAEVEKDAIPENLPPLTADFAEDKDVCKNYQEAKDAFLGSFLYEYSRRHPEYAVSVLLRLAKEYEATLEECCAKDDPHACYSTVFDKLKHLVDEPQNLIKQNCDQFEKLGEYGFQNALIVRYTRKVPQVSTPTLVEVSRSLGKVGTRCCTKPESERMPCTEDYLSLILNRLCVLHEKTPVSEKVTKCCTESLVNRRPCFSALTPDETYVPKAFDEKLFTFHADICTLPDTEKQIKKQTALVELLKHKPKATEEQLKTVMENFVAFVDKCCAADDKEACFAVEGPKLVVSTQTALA

SMILES	melting point [°C]	inhibition at 100 µg/mL (Bovine Serum Albumin) [%]	IC50 ([1]; Homo sapiens) [µM]	IC50 ([1]; listed as Our Product) [µM]	IC50 ([2]; Homo sapiens, 72 h) [µM]	inhibition at 10 µg/mL ([2]; Homo sapiens, 72 h, Prostate cancer (PC-3), 10 μg/ml) [%]	IC50 ([2]; listed as Our Product) [µM]	Inhibition % ([2]; Prostate cancer (PC-3), 10 μg/ml, 72 h) [%]
O=C(O)c1cn(C2CC2)c2cc(N3CCN(CN4C(=O)/C(=C\c5ccc6ccccc6n5)N=C4c4ccccc4)CC3)c(F)cc2c1=O [Compound 4, 1-cyclopropyl-6-fluoro-4-oxo-7-(4-((5-oxo-2-phenyl-4-(quinolin-2-ylmethylene)-4,5-dihydro-1H-imidazol-1-yl)methyl)piperazin-1-yl)-1,4-dihydroquinoline-3-carboxylic acid]	231 to 235	88.1	< 4	3.38 ± 0.2	< 4	94	2.88 ± 0.03	94.32
COc1cccc2c1C(=O)c1c(O)c3c(c(O)c1C2=O)C[C@@](O)(C(=O)CO)C[C@@H]3O[C@H]1C[C@H](N)[C@H](O)[C@H](C)O1 [DOX, Doxorubicin, reference compound]	–	–	9.4 ± 1.1	–	7.6 ± 0.45	–	–	–
